One series deals with H1437 cells. In words: Cell viability (cell count per well) in H1437, 72 h compound exposure. The note with it: H1437 infected with WA1, 72 h compound exposure. Type of series: cell-based, human.
The nature of series [1]: in vitro. Particulars: African green monkey.
Series [2] can be described thus: Cell viability (cell count per well) in H1437, 72 h compound exposure. Particulars: human. Type of series: cell-based, human.
A short description of series [3]: Cell viability in VeroE6, shortened 24 h infection assay. Particulars: African green monkey.
Series [4] deals with SARS-CoV-2 B.1.1.7 (alpha). In words: microbe, parasite or virus in culture. Type of series: cell-based.
For series [5], the system named is SARS-CoV-2 WA1 (wildtype). In words: microbe, parasite or virus in culture. Type of series: cell-based.
The next series has as its system SARS-CoV. Particulars: cited from earlier work.
Another series concerns SARS-CoV-2. Further details: method as in PMID 35138402. Particulars: phase 2, 2 g orally for 7 days; cited from earlier work.
On the set-up of series [6]: method as in PMID 26848771, PMID 31040114. The note with it: cited from earlier work.
For series [7] the following is noted: rats, oral administration at 5 mg/kg; cited from earlier work.
On the set-up of series [8]: method as in PMID 26848771, PMID 31040114. Particulars: cited from earlier work. The source holds these as a separate data set.
The test system of series [9] is SARS-CoV-2 B.1.617.2 (delta). The experiment in a line: microbe, parasite or virus in culture. Type of series: cell-based. The note with it: Severe acute respiratory syndrome coronavirus 2, Vero C1008; read-out: IC50 against B.1.617.2, 24 h infection.
Details of series [10]: method as in PMID 33842908. The note with it: phase 1, 50 mg over 2.5 days inhalable/intranasal; cited from earlier work.
In a further series the test system is SARS-CoV-2 P.1 (gamma). In words: microbe, parasite or virus in culture. Type of series: cell-based. Particulars: Severe acute respiratory syndrome coronavirus 2, Vero C1008; read-out: IC50 against P.1, 24 h infection.
In series [11] the test system is SARS-CoV-2 B.1.351 (beta). The experiment in a line: microbe, parasite or virus in culture. Type of series: cell-based. The note with it: Severe acute respiratory syndrome coronavirus 2, Vero C1008; read-out: IC50 against B.1.351, 24 h infection.
A short description of series [12]: in vitro. Particulars: African green monkey. The source holds these as a separate data set.
The mark [13] stands for this setting: H1437 cells infected with SARS-CoV-2 WA1, H1437 infected with WA1, 72 h compound exposure, read-out: H1437 (WA1) CC50.
Where [14] appears, read: Severe acute respiratory syndrome coronavirus 2, Vero C1008, 24 h; read-out: IC50 B.1.1.7 (protonophores).
Where [15] appears, read: Severe acute respiratory syndrome coronavirus 2, Vero C1008, 24 h; read-out: IC50 WA1 (protonophores).

Read-outs that look alike come from different tables or passages of the source. Some results are limits rather than exact numbers.

On to `CC(C)(C)c1cc(C(=O)Nc2ccc(NS(C)(=O)=O)cc2Cl)c(O)c(C(C)(C)C)c1` [Compound 18], for which the CC50 with VeroE6 cells and in the series on H1437 cells was more than 20 µM each time.
With `O=C(Nc1ccc([N+](=O)[O-])cc1Cl)c1ccccc1O` [Compound 2], the CC50 in the series “in vitro [1]” came out at 5.59 µM. Moreover, the CC50 at 72 h in series [2] (setting [13]) came to 8.4 µM.
`O=C(O)c1ccc(NC(=O)c2cc(C3CCCCC3)ccc2O)c(Cl)c1` [Compound 22]: the CC50 with VeroE6 cells and with H1437 cells was more than 20 µM throughout.
Turning to `O=C(O)c1ccc(NC(=O)c2cc(Cl)ccc2O)c(Cl)c1` [Compound 8], the CC50 with VeroE6 cells and in the series with H1437 cells was more than 20 µM throughout.
With `CC(C)(C)c1cccc(C(=O)Nc2ccc(N)cc2Cl)c1O` [Compound 32], the CC50 with VeroE6 cells and in the series with H1437 cells was more than 20 µM throughout.
Consider `Cc1cc(NC(=O)c2cc(C(C)(C)C)cc(C(C)(C)C)c2O)ccc1C(=O)O` [Compound 20], for which the CC50 in the series with VeroE6 cells and in the series on H1437 cells was more than 20 µM each time.
As to `N#CC(C#N)=NNc1ccc(OC(F)(F)F)cc1` [FCCP], the CC50 at 25 h in series [3] was 43 µM. Besides, the concentration for half-maximal inhibition (IC50) in series [4] (Severe acute respiratory syndrome coronavirus 2, Vero C1008, 24 h, read-out: IC50 B.1.1.7 (protonophores)) came to 13 µM; in series [5] (Severe acute respiratory syndrome coronavirus 2, Vero C1008, 24 h, read-out: IC50 WA1 (protonophores)), 35 µM.
In the case of `O=C(Nc1ccc(Br)cc1Cl)c1cc(Cl)ccc1O` [Compound 34], the CC50 in the series on VeroE6 cells turned out to be 5.47 µM; in the series on H1437 cells it was 3.62 µM.
As to `COc1ccc(NC(=O)c2cc(Cl)ccc2O)c(Cl)c1` [Compound 10], the CC50 with VeroE6 cells is more than 20 µM; in the series on H1437 cells it was 18.9 µM.
Turning to `COc1ccc(O)c(C(=O)Nc2ccc(C(=O)O)cc2C)c1` [Compound 28], the CC50 with VeroE6 cells and with H1437 cells was more than 20 µM in each case.
On to `O=c1oc2ccccc2c(O)c1Cc1c(O)c2ccccc2oc1=O` [Dicumarol, dicumarol], for which the CC50 at 25 h in series [3] was more than 100 µM. Moreover, the half-inhibitory concentration (IC50) in [4] (setting [14]) and in series [5] (setting [15]) was more than 100 µM in each case.
Take `COC(=O)c1ccc(NC(=O)c2cc(C(F)(F)F)ccc2O)c(C)c1` [Compound 23]: the CC50 in the series on VeroE6 cells and in the series with H1437 cells was more than 20 µM each time.
With `Cc1cc(C(=O)O)ccc1NC(=O)c1cc(C(C)(C)C)ccc1O` [Compound 16], the CC50 with VeroE6 cells and in the series on H1437 cells was more than 20 µM throughout.
On to `O=C(Nc1ccc([N+](=O)[O-])cc1Cl)c1cccc(Cl)c1` [Compound 9], for which the CC50 in the series “in vitro [1]” was more than 20 µM. Moreover, the CC50 at 72 h in [2] (setting [13]) is more than 20 µM.
Regarding `CC(C)(C)c1ccc(O)c(C(=O)Nc2ccc(C(=O)O)cc2F)c1` [Compound 15], the CC50 with VeroE6 cells and with H1437 cells was more than 20 µM in each case.
`N#Cc1ccc(NC(=O)c2cc(Cl)ccc2O)c(Cl)c1` [Compound 24] registered a CC50 in “in vitro [1]” of 4.72 µM. In addition, in series [2] (setting [13]), the CC50 at 72 h was 0.88 µM.
On to `CC(C)(C)c1cc(C(=O)Nc2ccc(N)cc2Cl)c(O)c(C(C)(C)C)c1` [Compound 19], for which the CC50 in the series with VeroE6 cells was 17.6 µM; in the series with H1437 cells, more than 20 µM.
In the case of `COC(=O)c1ccc(NC(=O)c2cc(C(C)(C)C)ccc2O)c(Cl)c1` [Compound 13], the CC50 in the series with VeroE6 cells is 14.6 µM; in the series on H1437 cells, more than 20 µM.
Turning to `COC(=O)c1ccc(NC(=O)c2cc(Cl)ccc2O)c(Cl)c1` [Compound 7], in the series “in vitro [1]”, the CC50 worked out at 8.14 µM. For the same compound, the CC50 at 72 h in series [2] (setting [13]) is more than 20 µM.
In the case of `O=C(Nc1ccc([N+](=O)[O-])cc1Cl)c1cc(Cl)ccc1O` [Niclosamide], the “inhibition of SARS-CoV viral replication in vitro” value in the series on SARS-CoV was “low micromolar potency”. For the same compound, the CC50 at 25 h in series [3] (VeroE6 cells infected with SARS-CoV-2, CC50 (protonophores), VeroE6, 24 h infection conditions, starting concentration 100 μM) was determined as 66 µM. Besides, the “effect on the duration of the contagious period of SARS-CoV-2” value in the series on SARS-CoV-2 is given as “no statistically significant effect”. Besides, the oral bioavailability in [6] is listed as less than 10%. In addition, the CC50 in the series “in vitro [1]” was 1.05 µM. The “maximal serum concentration (Cmax)” value in series [7] is 354 ± 152 ng/mL. Also, in series [8], the water solubility entry is listed as “poor”. For the same compound, the IC50 in series [9] came out at 0.774 ± 0.058 µM; in series [4] (setting [14]), 0.25 µM; in [4] (Severe acute respiratory syndrome coronavirus 2, Vero C1008; read-out: IC50 against B.1.1.7, 24 h infection) it was 0.298 µM; in the series with SARS-CoV-2 P.1 (gamma), 0.399 ± 0.034 µM; in [11], 0.44 ± 0.021 µM; in series [5] (setting [15]) it was 3.5 µM. Moreover, in [5] (Severe acute respiratory syndrome coronavirus 2, Vero C1008; read-out: IC50 against WA1, 24 h infection), the 50% inhibitory concentration (IC50) stood at 1.66 µM. For the same compound, the CC50 at 72 h came out at 0.438 µM in series [2] (H1437 cells infected with SARS-CoV-2 B.1.1.7, H1437 infected with B.1.1.7, 72 h compound exposure, read-out: H1437 (B.1.1.7) CC50) and 17.1 µM in series [2] (setting [13]). In addition, the “participants with moderate lung irritation” value in series [10] is on record as 59%.
Take `CC(C)(C)c1ccc(O)c(C(=O)Nc2ccc(C(=O)O)cc2Cl)c1` [Compound 14]: the results for the CC50 in the series with VeroE6 cells and with H1437 cells were 14.2 µM and more than 20 µM, respectively.
In series [3], `O=C(Nc1cc(Cl)cc(Cl)c1O)c1c(O)c(Cl)cc(Cl)c1Cl` [Oxyclozanide, oxyclozanide] yielded a CC50 at 25 h of more than 100 µM. The IC50 in series [4] (setting [14]) is 20 µM; in series [5] (setting [15]), 64 µM.
As for `Cc1ccc(O)c(C(=O)Nc2ccc([N+](=O)[O-])cc2Cl)c1` [Compound 3], the CC50 in the series with VeroE6 cells came out at 6.28 µM; in the series on H1437 cells it was 3.06 µM.
Take `CC(C)(C)c1cccc(C(=O)Nc2ccc(C(=O)O)cc2Cl)c1O` [Compound 30]: the CC50 with VeroE6 cells and in the series on H1437 cells was more than 20 µM in each case.
Turning to `CC(C)(C)c1cc(C(=O)Nc2ccc(C(=O)O)cc2Cl)c(O)c(C(C)(C)C)c1` [Compound 26], the CC50 with VeroE6 cells and in the series on H1437 cells was more than 20 µM in each case.
The compound `O=[N+]([O-])c1ccc(O)c([N+](=O)[O-])c1` [2,4 DNP] came in with a CC50 in the series “in vitro [12]” of more than 100 µM. In addition, the IC50 in [4] (setting [14]) and in series [5] (setting [15]) was more than 100 µM in each case.
In the case of `CC(C)(C)c1cccc(C(=O)Nc2ccc([N+](=O)[O-])cc2Cl)c1O` [Compound 31], the CC50 in the series on VeroE6 cells came to 7.21 µM; in the series on H1437 cells, 1.11 µM.
For `CC(C)(C)c1cccc(C(=O)Nc2ccc(NS(C)(=O)=O)cc2Cl)c1O` [Compound 33], the CC50 in the series on VeroE6 cells and in the series with H1437 cells was more than 20 µM throughout.
Turning to `COC(=O)c1ccc(NC(=O)c2cc(C3CCCCC3)ccc2O)c(Cl)c1` [Compound 21], the CC50 in the series on VeroE6 cells and with H1437 cells was more than 20 µM each time.
For the compound `Cc1ccc(NC(=O)c2cc(Cl)ccc2O)c(Cl)c1` [Compound 6], the CC50 in the series with VeroE6 cells is 4.59 µM; in the series on H1437 cells, 6.05 µM.
On to `COc1ccc(O)c(C(=O)Nc2ccc([N+](=O)[O-])cc2Cl)c1` [Compound 4], for which the CC50 in the series on VeroE6 cells was determined as 10.1 µM; with H1437 cells it was 8.94 µM.
In turn, `CC(C)(C)c1ccc(O)c(C(=O)Nc2ccc([N+](=O)[O-])cc2Cl)c1` [Compound 11] gave a CC50 in the series “in vitro [1]” of 3.41 µM. In addition, the CC50 at 72 h in series [2] (setting [13]) was 1.92 µM.
`Cc1cc(NC(=O)c2cc(C(C)(C)C)cc(C(C)(C)C)c2O)ccc1C(=O)O` [Compound 27] yielded a CC50 in the series with VeroE6 cells of more than 20 µM.
For the compound `COc1ccc(O)c(C(=O)Nc2ccc([N+](=O)[O-])cc2Cl)c1` [Compound 12], the CC50 with VeroE6 cells came to 10.3 µM; in the series with H1437 cells, 7.53 µM.
With `O=C(Nc1ccccc1Cl)c1cc(Cl)ccc1O` [Compound 5], the figures for the CC50 in the series on VeroE6 cells and with H1437 cells were 8.44 µM and 18.6 µM, respectively.
`COC(=O)c1ccc(NC(=O)c2cccc(C(C)(C)C)c2O)c(Cl)c1` [Compound 25]: the CC50 in the series with VeroE6 cells and with H1437 cells was more than 20 µM throughout.

What is called IC50 is the concentration that inhibits the measured activity by half.
